Patent US20080021026A1, “BENZOTHIOPHENE INHIBITORS OF RHO KINASE” (priority 2006, published 2008)
Like-named read-outs stand apart in the source and are kept apart here.

Experiments:
[1] = biological target: T1, recombinant N-terminal GST-tagged human Rho kinase 2 (ROCK2, amino acids 1-552) (Homo sapiens, UniProt O75116); assay: In vitro Rho kinase assay (luciferase-based ATP consumption), ROCK2; format: biochemical
T1 construct: ROCK2, amino acids 1-552; purchased Invitrogen Inc. PV3759
In short: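 Luciferase-based luminescence of leftover ATP after 2 h at 30 °C, where inhibition raises signal, reports activity of GST-tagged ROCK2 (aa 1-552) at 0.82 μg/ml. Conditions: S6 peptide 100 μg/ml, […], pH 7.5 Tris buffer. Results given as percent of H-1152P control activity.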

[2] = biological target: T2, recombinant N-terminal GST-tagged human Rho kinase 1 (ROCK1, amino acids 1-535) (Homo sapiens, UniProt Q13464); assay: In vitro Rho kinase assay (luciferase-based ATP consumption), ROCK1; format: biochemical
T2 construct: ROCK1, amino acids 1-535; purchased Invitrogen Inc. PV-3691
In short: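 ATP depletion measured by firefly luciferase luminescence after 2 h at 30 °C, with inhibition raising signal and activity expressed relative to H-1152P. Reaction: 0.82 μg/ml recombinant GST-tagged ROCK1 (aa 1-535), S6 peptide 100 μg/ml, […], pH 7.5 Tris buffer.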

[3] = test system: lasered (hypertensive) eyes of conscious cynomolgus monkeys; assay: Acute IOP response in lasered (hypertensive) eyes of conscious cynomolgus monkeys; format: in vivo; conditions: instilled in right eye, IOP measured at 1, 3 and 6 hours, peak reduction
Excerpt: Acute IOP Response in Lasered (Hypertensive) Eyes of Conscious Cynomolgus Monkeys
Intraocular pressure (IOP) can be determined with an Alcon Pneumatonometer after light corneal anesthesia with 0.1% proparacaine. Eyes are washed with saline after each measurement. After a baseline IOP measurement, test compound is instilled in one […] aliquot to the right eyes only of nine cynomolgus monkeys. Vehicle is instilled in the right eyes of six additional animals. Subsequent IOP measurements are taken at 1, 3, and 6 hours, and peak reduction in IOP is reported below in Table 2 as percent of IOP lowering versus the control for each of the given concentrations of compound.
A more detailed description of the assay used herein may be found in May et al., “Evaluation of the Ocular Hypotensive Response of Serotonin 5-HT1A and 5-HT2 Receptor Ligands in Conscious Ocular Hypertensive Cynomolgus Monkeys,” J. of Pharmacology and Experimental Therapeutics, vol. 306(1), pp. 301-309 (2003), the disclosure of which is hereby incorporated by reference as if written herein in its entirety.

[4] = recombinant GST-tagged human ROCK2, luciferase-based ATP consumption, read-out: ROCK2 IC50
[5] = recombinant GST-tagged human ROCK1, luciferase-based ATP consumption, read-out: ROCK1 IC50
[6] = ROCK2 IC50, recombinant GST-tagged human ROCK2, luciferase-based ATP consumption
[7] = ROCK1 IC50, recombinant GST-tagged human ROCK1, luciferase-based ATP consumption

T2 sequence (Q13464 1-535): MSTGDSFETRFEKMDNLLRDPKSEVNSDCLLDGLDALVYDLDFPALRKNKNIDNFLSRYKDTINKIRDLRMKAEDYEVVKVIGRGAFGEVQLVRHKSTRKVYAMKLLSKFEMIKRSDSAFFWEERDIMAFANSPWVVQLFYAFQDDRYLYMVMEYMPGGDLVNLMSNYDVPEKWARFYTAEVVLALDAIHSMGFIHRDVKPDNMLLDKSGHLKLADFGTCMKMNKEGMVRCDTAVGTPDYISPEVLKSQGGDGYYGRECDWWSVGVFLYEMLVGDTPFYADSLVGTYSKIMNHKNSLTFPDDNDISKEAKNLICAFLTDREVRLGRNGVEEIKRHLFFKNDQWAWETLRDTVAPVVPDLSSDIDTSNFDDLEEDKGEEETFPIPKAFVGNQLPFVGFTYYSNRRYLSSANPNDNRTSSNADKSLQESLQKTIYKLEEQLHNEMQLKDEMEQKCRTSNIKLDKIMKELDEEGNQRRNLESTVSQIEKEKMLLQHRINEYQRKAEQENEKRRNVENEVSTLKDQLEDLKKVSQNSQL
T1 sequence (O75116 1-552): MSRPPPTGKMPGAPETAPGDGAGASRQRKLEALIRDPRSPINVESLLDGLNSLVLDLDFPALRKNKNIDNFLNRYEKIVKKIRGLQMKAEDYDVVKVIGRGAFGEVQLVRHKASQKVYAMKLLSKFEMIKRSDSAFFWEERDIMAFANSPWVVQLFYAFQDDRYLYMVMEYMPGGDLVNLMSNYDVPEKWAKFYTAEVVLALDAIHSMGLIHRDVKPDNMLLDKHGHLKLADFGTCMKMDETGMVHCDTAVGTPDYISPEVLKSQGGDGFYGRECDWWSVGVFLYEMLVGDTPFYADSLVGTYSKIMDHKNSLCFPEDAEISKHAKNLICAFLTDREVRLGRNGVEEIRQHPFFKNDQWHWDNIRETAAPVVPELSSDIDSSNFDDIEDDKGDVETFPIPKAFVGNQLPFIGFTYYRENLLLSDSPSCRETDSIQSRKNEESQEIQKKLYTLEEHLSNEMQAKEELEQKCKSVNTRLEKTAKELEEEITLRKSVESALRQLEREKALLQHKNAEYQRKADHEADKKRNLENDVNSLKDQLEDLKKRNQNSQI

| Compound | IC50 [1, 4] | IC50 [2, 5] | also measured |
| --- | --- | --- | --- |
| COc1cccc(Nc2ccc3sc(-c4ccnc(N)n4)c(C)c3c2)c1 [Example 51, 4-(5-(3-Methoxyphenylamino)-3-methylbenzo[b]thiophen-2-yl)pyrimidin-2-amine] | < 5 µM | < 5 µM | Peak % Lowering of IOP vs. Control at 0.3% ([3]; compound concentration 0.3%): 9.5%; Peak % Lowering of IOP vs. Control at 1.0% ([3]; compound concentration 1.0%): 18.6% |
| Cc1c(-c2ccnc(N)n2)sc2ccc(CNC(=O)CCc3cccc(Br)c3)cc12 [Example 304, Cc1c(sc2ccc(CNC(═O)CCc3cccc(Br)c3)cc12)-c4ccnc(N)n4] | < 5 µM | > 5 µM |  |
| Cc1c(-c2ccnc(N)n2)sc2ccc(CNC(=O)c3ccccc3[N+](=O)[O-])cc12 [Example 179, Cc1c(sc2ccc(CNC(═O)c3ccccc3[N+]([O−])═O)cc12)-c4ccnc(N)n4] | < 5 µM | > 5 µM |  |
| CCCCOc1ccc(C(=O)NCc2ccc3sc(-c4ccnc(N)n4)c(C)c3c2)cc1 [Example 257, CCCCOc1ccc(cc1)C(═O)NCc2ccc3sc(c(C)c3c2)-c4ccnc(N)n4] | > 5 µM | > 5 µM |  |
| COc1cncc(Nc2ccc3sc(-c4ccnc(N)n4)c(C)c3c2)c1 [Example 67, 4-(5-(5-Methoxypyridin-3-ylamino)-3-methylbenzo[b]thiophen-2-yl)pyrimidin-2-amine] | < 5 µM | < 5 µM |  |
| CC(=O)c1cccc(C(=O)NCc2ccc3sc(-c4ccnc(N)n4)c(C)c3c2)c1 [Example 164, CC(═O)c1cccc(c1)C(═O)NCc2ccc3sc(c(C)c3c2)-c4ccnc(N)n4] | < 5 µM | > 5 µM |  |
| Cc1c(-c2cc(N)ncn2)sc2ccc(Cl)cc12 [Example 8, 6-(5-Chloro-3-methylbenzo[b]thiophen-2-yl)pyrimidin-4-amine] | > 5 µM | > 5 µM |  |
| CC(=O)c1ccccc1C(=O)NCc1ccc2sc(-c3ccnc(N)n3)c(C)c2c1 [Example 165, CC(═O)c1ccccc1C(═O)NCc2ccc3sc(c(C)c3c2)-c4ccnc(N)n4] | < 5 µM | > 5 µM |  |
| COc1ccc(C(=O)NCc2ccc3sc(-c4ccnc(N)n4)c(C)c3c2)cc1 [Example 138, COc1ccc(cc1)C(═O)NCc2ccc3sc(c(C)c3c2)-c4ccnc(N)n4] | < 5 µM | > 5 µM |  |
| Cc1c(-c2ccnc(N)n2)sc2ccc(CNC(=O)c3ccccc3)cc12 [Example 108, Cc1c(sc2ccc(CNC(═O)c3ccccc3)cc12)-c4ccnc(N)n4] | > 5 µM | < 5 µM |  |
| Cc1c(-c2ccnc(N)n2)sc2ccc(CNC(=O)C3CC(O)CN3C(=O)OC(C)(C)C)cc12 (stereo not drawn) [Example 311, Cc1c(sc2ccc(CNC(═O)[C]3CC(O)CN3C(═O)OC(C)(C)C)cc12)-c4ccnc(N)n4] | > 5 µM | > 5 µM |  |
| Cc1c(-c2ccnc(N)n2)sc2ccc(CNC(=O)c3ccc(Cl)c(Br)c3)cc12 [Example 315, Cc1c(sc2ccc(CNC(═O)c3ccc(Cl)c(Br)c3)cc12)-c4ccnc(N)n4] | < 5 µM | < 5 µM |  |
| Cc1cccc(CCC(=O)NCc2ccc3sc(-c4ccnc(N)n4)c(C)c3c2)c1 [Example 168, Cc1cccc(CCC(═O)NCc2ccc3sc(c(C)c3c2)-c4ccnc(N)n4)c1] | < 5 µM | < 5 µM |  |
| Cc1c(-c2ccnc(N)n2)sc2ccc(CNC(=O)c3c(F)cccc3F)cc12 [Example 153, Cc1c(sc2ccc(CNC(═O)c3c(F)cccc3F)cc12)-c4ccnc(N)n4] | < 5 µM | < 5 µM |  |
| Cc1c(-c2ccnc(N)n2)sc2ccc(CNC(=O)C(C)c3cccc(C(=O)c4ccccc4)c3)cc12 (stereo not drawn) [Example 324, CC(C(═O)NCc1ccc2sc(c(C)c2c1)-c3ccnc(N)n3)c4cccc(c4)C(═O)c5ccccc5] | > 5 µM | > 5 µM |  |
| Cc1c(-c2ccnc(N)n2)sc2ccc(CNC(=O)c3cccnc3Cl)cc12 [Example 149, Cc1c(sc2ccc(CNC(═O)c3cccnc3Cl)cc12)-c4ccnc(N)n4] |  |  | IC50 [1, 6]: < 5 µM; IC50 [2, 7]: > 5 µM |
| Cc1cccc(C(=O)NCc2ccc3sc(-c4ccnc(N)n4)c(C)c3c2)c1C [Example 133, Cc1cccc(c1C)C(═O)NCc2ccc3sc(c(C)c3c2)-c4ccnc(N)n4] | < 5 µM | < 5 µM |  |
| Cc1c(-c2ccnc(N)n2)sc2ccc(C(=O)c3ccccc3)cc12 [Example 87, (2-(2-Aminopyrimidin-4-yl)-3-methylbenzo[b]thiophen-5-yl)(phenyl)methanone] | < 5 µM | > 5 µM |  |

| Compound | IC50 [1, 4] | IC50 [2, 5] | also measured |
| --- | --- | --- | --- |
| Cc1c(-c2ccnc(N)n2)sc2ccc(CNC(=O)c3cc(Cl)c(O)c(Cl)c3)cc12 [Example 275, Cc1c(sc2ccc(CNC(═O)c3cc(Cl)c(O)c(Cl)c3)cc12)-c4ccnc(N)n4] | > 5 µM | < 5 µM |  |
| CCOc1ccc2ccccc2c1C(=O)NCc1ccc2sc(-c3ccnc(N)n3)c(C)c2c1 [Example 291, CCOc1ccc2ccccc2c1C(═O)NCc3ccc4sc(c(C)c4c3)-c5ccnc(N)n5] | < 5 µM | > 5 µM |  |
| Cc1ccccc1C(=O)NCc1ccc2sc(-c3ccnc(N)n3)c(C)c2c1 [Example 119, Cc1ccccc1C(═O)NCc2ccc3sc(c(C)c3c2)-c4ccnc(N)n4] | < 5 µM | > 5 µM |  |
| Cc1c(-c2ccnc(N)n2)sc2ccc(CNC(=O)c3ccc(Cl)cc3Cl)cc12 [Example 246, Cc1c(sc2ccc(CNC(═O)c3ccc(Cl)cc3Cl)cc12)-c4ccnc(N)n4] |  |  | IC50 [1, 6]: < 5 µM; IC50 [2, 7]: < 5 µM |
| Cc1c(-c2ccnc(N)n2)sc2ccc(CNC(=O)c3cnc(O)c(Cl)c3)cc12 [Example 193, Cc1c(sc2ccc(CNC(═O)c3cnc(O)c(Cl)c3)cc12)-c4ccnc(N)n4] | > 5 µM | < 5 µM |  |
| Cc1c(-c2ccnc(N)n2)sc2ccc(CNC(=O)c3ccc4ccccc4c3O)cc12 [Example 239, Cc1c(sc2ccc(CNC(═O)c3ccc4ccccc4c3O)cc12)-c5ccnc(N)n5] | < 5 µM | > 5 µM |  |
| Cc1c(-c2ccnc(N)n2)sc2ccc(Sc3cccc(C(=O)O)c3)cc12 [Example 86, 3-(2-(2-Aminopyrimidin-4-yl)-3-methylbenzo[b]thiophen-5-ylthio)benzoic acid] | < 5 µM | < 5 µM |  |
| Cc1c(C(=O)NCc2ccc3sc(-c4ccnc(N)n4)c(C)c3c2)cccc1[N+](=O)[O-] [Example 218, Cc1c(cccc1[N+]([O−])═O)C(═O)NCc2ccc3sc(c(C)c3c2)-c4ccnc(N)n4] | < 5 µM | > 5 µM |  |
| COc1cc(C(=O)NCc2ccc3sc(-c4ccnc(N)n4)c(C)c3c2)cc(OC)c1OC [Example 279, COc1cc(cc(OC)c1OC)C(═O)NCc2ccc3sc(c(C)c3c2)-c4ccnc(N)n4] | < 5 µM | > 5 µM |  |
| Cc1c(-c2ccnc(N)c2)sc2ccc(Cl)cc12 [Example 7, 4-(5-Chloro-3-methylbenzo[b]thiophen-2-yl)pyridin-2-amine] | > 5 µM | > 5 µM |  |
| Cc1c(-c2ccnc(N)n2)sc2ccc(CNC(=O)Cc3ccc(C(F)(F)F)cc3)cc12 [Example 273, Cc1c(sc2ccc(CNC(═O)Cc3ccc(cc3)C(F)(F)F)cc12)-c4ccnc(N)n4] | < 5 µM | < 5 µM |  |
| Cc1c(-c2ccnc(N)n2)sc2ccc(CNC(=O)C3CCCCC3)cc12 [Example 115, Cc1c(sc2ccc(CNC(═O)C3CCCCC3)cc12)-c4ccnc(N)n4] | < 5 µM | > 5 µM |  |
| Cc1c(-c2ccnc(N)n2)sc2ccc(CNC(=O)c3ccc(C(F)(F)F)cc3[N+](=O)[O-])cc12 [Example 313, Cc1c(sc2ccc(CNC(═O)c3ccc(cc3[N+]([O−])═O)C(F)(F)F)cc12)-c4ccnc(N)n4] | < 5 µM | < 5 µM |  |
| Cc1c(-c2ccnc(N)n2)oc2ccc(Cc3cccc(O)c3)cc12 [Example 92, 3-((2-(2-Aminopyrimidin-4-yl)-3-methylbenzofuran-5-yl)methyl)phenol] | < 5 µM | < 5 µM |  |
| Cc1c(-c2ccnc(N)n2)sc2ccc(CNC(=O)c3ccc(-c4ccc(O)cc4)cc3)cc12 [Example 285, Cc1c(sc2ccc(CNC(═O)c3ccc(cc3)-c4ccc(O)cc4)cc12)-c5ccnc(N)n5] | < 5 µM | > 5 µM |  |
| Cc1c(-c2ccnc(N)n2)sc2ccc(CNC(=O)c3ccc(O)cc3O)cc12 [Example 144, Cc1c(sc2ccc(CNC(═O)c3ccc(O)cc3O)cc12)-c4ccnc(N)n4] | < 5 µM | > 5 µM |  |
| Cc1c(-c2ccnc(N)n2)sc2ccc(CNC(=O)c3cc(Cl)ccc3Cl)cc12 [Example 247, Cc1c(sc2ccc(CNC(═O)c3cc(Cl)ccc3Cl)cc12)-c4ccnc(N)n4] |  |  | IC50 [1, 6]: < 5 µM; IC50 [2, 7]: < 5 µM |
